PMC9942557, “Bolaamphiphile Analogues of 12-bis-THA Cl2 Are Potent Antimicrobial Therapeutics with Distinct Mechanisms of Action against Bacterial, Mycobacterial, and Fungal Pathogens” (mSphere, 2022)

Key:
P. aeruginosa PAO1 = assay: Fluorescence microscopy, penetration of bolalipid; assay type: cell-based, Pseudomonas aeruginosa; settings: 180 μM
Protocol: P. aeruginosa PAO1 was incubated with CM2 alone or in combination with tobramycin. A single colony of bacteria was collected from a Luria-Bertani (LB) agar plate and resuspended in 10 mL of LB broth overnight at 37°C, with shaking at 150 rpm. The following morning, a 2% (vol/vol) dilution was done in fresh LB broth, and the bacteria suspension was grown at 37°C with shaking at 150 rpm until it reached an OD600 of 0.3. The surface of microscopy SuperFrost glass slides (Thermo Fisher Scientific, Massachusetts, USA) was marked with a PAP pen, in order to design two square confined areas per glass slide, where the bacteria were deposited. One hundred microliters of bacterial suspension was transferred into sterile Eppendorf tubes and incubated with equal volumes of bolalipid suspension for 1 h. The bolalipid final concentration was 0.18 mM. The fluorescent Alexa Fluor 555 conjugate of wheat germ agglutinin (WGA) (Thermo Fisher Scientific) lectin membrane dye (10 μg/mL final concentration) was added to the suspension, and the bacteria were incubated for 45 min more. At the end of incubation, 100 μL was spotted in each half of the SuperFrost glass slides and incubated for 45 min more. Glass slides were then washed three times with phosphate-buffered saline (PBS) and left to dry for 5 min before addition of one drop of Fluoromount (Sigma-Aldrich, Germany) aqueous mounting medium. […]

[1] = test system: Prevotella bivia NCTC 11156; assay: Anaerobic broth microdilution MIC (BHI, 5% horse serum); assay type: cell-based; settings: NCTC11156, read-out: MIC
G. vaginalis NCTC 10287 = assay: as above; assay type: cell-based, Gardnerella vaginalis; settings: Gardnerella vaginalis, NCTC10287, read-out: MIC
G. vaginalis KC3 = assay: as above; assay type: cell-based, Gardnerella vaginalis; settings: Gardnerella vaginalis, read-out: MIC
G. vaginalis KC1 = assay: as above; assay type: cell-based, Gardnerella vaginalis; settings: Gardnerella vaginalis, read-out: MIC
G. vaginalis KC2 = assay: as above; assay type: cell-based, Gardnerella vaginalis; settings: Gardnerella vaginalis, read-out: MIC
[2] = test system: Pseudomonas aeruginosa RP73; assay: In vitro pharmacodynamic (PD) assay; settings: P. aeruginosa RP73; combination 2:1 (wt/wt)
Protocol: In vitro PD assays were performed with Pseudomonas aeruginosa RP73 cultured in Roswell Park Memorial Institute 1640 medium (RPMI) supplemented with 5% Mueller-Hinton broth (MHB) ([35]). Bacteria were cultured overnight in 10 mL of RPMI–5% MHB at 37°C and diluted just prior to plate inoculation to an OD600 of 0.002. Stock solutions of colistin or tobramycin were prepared in sterile MilliQ water at a concentration of 200× MIC. Octa-bola was prepared in methanol at 2,000× MIC and diluted in water to 200× MIC. A dilution series was made in the top row of a polypropylene 96-well plate from 200× MIC to 0.2× MIC in a volume of 100 μL, to which 100 μL of the bacterial suspension was added to have a total of 1 × 10^6 log-phase CFU in 200 μL. The first time zero sample was taken <30 s after addition of bacteria to the plate, with further samples taken at appropriate intervals thereafter. […] Fifteen microliters was removed from each well, diluted 1:1,000 in phosphate-buffered saline, and plated onto RPMI–5% MH agar plates. The plates were incubated at 37°C overnight for CFU counting.
CFU data were log10 transformed, and the bacterial net growth rate was determined from the increase or decrease in CFU during the time of exposure to the antibiotics as the coefficient of a linear regression of log10 CFU as a function of time. The intercept of the regression was fixed by forcing the regression lines through the first CFU measurement (0 min) at a given antimicrobial concentration. The pharmacodynamic function according to Regoes et al. ([36]) describes the relationship between bacterial net growth rate (ψ) and the concentration of an antimicrobial (a): ψmax − ([ψmax − ψmin][a/zMIC])^κ/([a/zMIC]^κ − [ψmin/ψmax]). Fitting this function to the net bacterial growth rates in OriginPro 2020 (OriginLab Corporation, Northampton, MA) generates the parameters ψmin and ψmax (minimum and maximum growth rates, respectively), zMIC (the pharmacodynamic MIC), and κ (a measure of the cooperativity). […]

[3] = Maximum solubility in water; assay type: physicochemical; settings: ultrapure water, 40 °C, thermodynamic from solid
Protocol: Stock solutions of bolalipids were prepared by dispersing the powder in ultrapure water, then stirring vigorously by vortexing, and sonicating in a 40°C bath sonicator for 20 min. The concentration of each stock solution corresponds to the highest solubility achieved in water for each bolalipid, using the method described above. DLS experiments were performed on a Malvern Zetasizer Nano (Malvern Instruments, Worcestershire, UK) in back-scattering mode at 20°C. There were three independent measurements of each sample and 12 runs for each measurement, with 10 s taken for each run. The attenuator index and measurement position were automatically adjusted. Fifty microliters of each sample was transferred into polystyrene semi-microcuvettes for determination of UV and visible wavelengths (Sarstedt).

Candida auris TGD1912 [4] = assay: Fluorescence microscopy, accumulation of bolalipid; assay type: cell-based; settings: 0.18 mM (approximately 54× the MIC), 30 min
Protocol: Candida auris cells were picked from a yeast extract-peptone-dextrose (YPD) agar plate and resuspended in 35 mL of sterile distilled water (dH2O). After resuspension, 150 μL of cells was inoculated in 100 mL of YPD broth overnight at 30°C with shaking at 130 rpm and grown to exponential phase (5 × 10^6 to 5 × 10^7 cells/mL). Cells (6 × 10^8) were washed in standard defined (SD) medium twice (pelleted at 1,500 × g for 5 min and resuspended in 10 mL SD medium [yeast nitrogen base without the amino acids D-glucose, methionine, adenine, histidine, tryptophan, uracil, leucine, and lysine]), followed by resuspension in 1 mL SD medium containing 0.18 mM Penta-bola, and incubated at 37°C for 30 min. After treatment with the Penta-bola, cells were pelleted and resuspended in Hanks’ balanced salt solution (HBSS) and 50 μg/mL CF594 concanavalin A (Biotium). After incubation at 37°C for 30 min, cells were washed once with HBSS and resuspended in 1 mL of HBSS. Polysine adhesion slides (Thermo Scientific) were prepared by spreading 20 μL of treated cells and allowing them to dry for 30 min before adding one drop of Fluoromount (Sigma-Aldrich, Germany) aqueous mounting medium. Fluorescence images were acquired using a Leica fluorescence microscope at ×100 magnification. […]

Candida auris TGD1912 [5] = assay: MIC; assay type: cell-based

In the case of `Nc1c2c([n+](CCCCCCCCCCCC[n+]3c4c(c(N)c5ccccc53)CCCC4)c3ccccc13)CCCC2` [12-bis-THA Cl2, 12,12′-(Dodecane-1,12-diyl)-bis-(9-amino-1,2,3,4-tetrahydroacridinium) chloride], the “bacterial integrity / accumulation of bolalipid” value (P. aeruginosa PAO1) is reported as “the bacteria appeared intact and the bolalipid was concentrated within the cells”.
`Cc1cc(N)c2ccccc2[n+]1CCCCCCCCCC[n+]1c(C)cc(N)c2ccccc21` [Dequalinium, dequalinium chloride, reference compound] showed an MIC [1] of 2 µg/mL, an MIC (G. vaginalis NCTC 10287) of 2 µg/mL and an MIC (G. vaginalis KC3) of 2 to 4 µg/mL. For the same molecule, the MIC (G. vaginalis KC1) was 2 µg/mL and the MIC (G. vaginalis KC2) was 4 µg/mL.
For `Nc1c2c([n+](CCCCCCCCCCCC[n+]3c4c(c(N)c5ccccc53)CCCCCC4)c3ccccc13)CCCCCC2` [Octa-bola], the “bactericidal activity (minimum growth rate, ψmin)” value [2] was “strongly bactericidal, albeit only at the highest concentration tested” and the solubility at 20 min [3] was 360 µM.
For `Nc1c2c([n+](CCCCCCCCCCCC[n+]3c4c(c(N)c5ccccc53)CCC4)c3ccccc13)CCC2` [Penta-bola], the “cell integrity / accumulation of bolalipid” value (Candida auris TGD1912 [4]) was “the cells remained intact” and the MIC (Candida auris TGD1912 [5]) was 2 µg/mL.
